Experimental data from PMC12332667, “Role of Structural Modifications in Peptidomimetic Compounds as Potential Antimicrobial Agents against Staphylococcus aureus and Streptococcus pyogenes: Balancing Bioavailability, Safety, and Antimicrobial Activity” (ACS Omega, 2025).
Converted amounts (≈) assume the structure as drawn. “And” between values parts separate entries of the source, which are not always exact repeats. Equal entries are not always repeated.

Legend:
S. aureus ATCC 43300 = test: MIC/MBC broth microdilution, S. aureus; type: cell-based, Staphylococcus aureus; details: S. aureus
S. pyogenes ATCC 19615 = test: MIC/MBC broth microdilution, S. pyogenes; type: cell-based, Streptococcus pyogenes; details: S. pyogenes
In short: (§1)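 Bacteria inoculated at about 10^5 CFU/mL in BHI broth and incubated 18 h at 37 °C with serial dilutions of peptidomimetics, NCCLS microdilution format. MBC taken as lowest concentration leaving no more than 3 colonies (≥99.9% kill); MIC as lowest concentration without obvious growth (≥90% of untreated); solvent controls included.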

S. cohnii c.i. = test: MIC/MBC broth microdilution, S. cohnii; type: cell-based, Staphylococcus cohnii
In short: as §1

E. faecalis c.i. = test: MIC/MBC broth microdilution, E. faecalis; type: cell-based, Enterococcus faecalis
In short: as §1

S. schleiferi c.i. = test: MIC/MBC broth microdilution, S. schleiferi; type: cell-based, Staphylococcus schleiferi
In short: as §1

S. intemrdius c.i. = test: MIC/MBC broth microdilution, S. intermedius; type: cell-based, Staphylococcus intermedius
In short: as §1

S. mutans c.i. = test: MIC/MBC broth microdilution, S. mutans; type: cell-based, Streptococcus mutans
In short: as §1

E. coli ATCC 25922 = test: MIC/MBC broth microdilution, E. coli; type: cell-based, Escherichia coli
In short: as §1

P. vulgaris ATCC 6896 = test: MIC/MBC broth microdilution, P. vulgaris; type: cell-based, Proteus vulgaris
In short: as §1

[1] = system: K. pneumoniae ATCC 700603; test: MIC/MBC broth microdilution, K. pneumoniae; type: cell-based
In short: as §1

P. aeruginosa ATCC 10145 = test: MIC/MBC broth microdilution, P. aeruginosa; type: cell-based
In short: as §1

[2] = Hydrophobicity by reverse-phase chromatography; type: physicochemical; details: acetonitrile content in the mobile phase at the retention time
Source text: Reverse-phase chromatography was employed to assess the hydrophobicity characteristics of the peptidomimetics. Hydrophobicity was quantified by determining the acetonitrile content in the mobile phase at the retention time of a peptidyl derivative (Table S2). The least hydrophobic compound (40% acetonitrile) was A-198, which aligns with the calculations of hydrophobicity by SwissADME and pkCSM (Table ). Next in the hydrophobicity sequence were A-197, A-220, A-219, A-174, and A-221, eluting with 42.5-43.9% of acetonitrile. Then there were followed by […], and A-179, with the acetonitrile percentage of 44.8-49.8. The compounds A-176, A-20, A-152, A-134, and A-210 needed over 50% of acetonitrile to be eluted from the column.

[3] = system: immortalized human keratinocytes (HaCaT); test: LDH cytotoxicity test, keratinocytes; type: cell-based; details: 48 h; for cytotoxicity (LDH), in words: 50-150 μg/mL
In short: (§2)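 Cytotoxicity as LDH release after 48 h serum-free treatment (50, 100, 150 μg/mL peptidomimetics) of 46BR.1N fibroblasts or HaCaT keratinocytes seeded at 5000 per well. Absorbance 450 nm; untreated set as 0% and Triton X-100 1% as maximal release; Mann–Whitney U test, p ≤ 0.05.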

fibroblasts (46BR.1N) = test: LDH cytotoxicity test, fibroblasts; type: cell-based; details: 48 h; for cytotoxicity (LDH), in words: 50-150 μg/mL
In short: as §2

[4] = system: immortalized human HaCaT keratinocytes; test: XTT cell proliferation assay, keratinocytes; type: cell-based; details: for effect on proliferation, in words: XTT, 48 and 72 h, 0.01–150 μg/mL
In short: (§3)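 Proliferation was read as XTT absorbance at 490 nm after 4 h of reagent incubation, following 48 or 72 h of peptide exposure in serum-free HG-DMEM (37 °C, 5% CO2). The 72 h arm included a half-medium change with second peptide dose at 48 h. Significance by Mann–Whitney U, p ≤ 0.05.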

[5] = system: human dermal fibroblast cell line (46BR.1N); test: XTT cell proliferation assay, fibroblasts; type: cell-based; details: for effect on proliferation, in words: XTT, 48 and 72 h, 0.01–150 μg/mL
In short: as §3

S. agalactiae ATCC 27956 = test: MIC/MBC broth microdilution, S. agalactiae; type: cell-based, Streptococcus agalactiae; details: S. agalactiae
In short: as §1

[6] = up to 150 μg/mL, A-193 and A-179 after 48 h

CC(C)[C@@H](CNC(=O)C(=Cc1ccccc1)c1ccccc1)NC(=O)[C@H](CCCNC(=N)N)NC(=O)[C@H](CCCNC(=N)N)NC(=O)OCc1ccccc1 [Compound A-179]
MBC (S. aureus ATCC 43300; H2O): 32 µg/mL (≈ 42.4 µM) | MIC (S. aureus ATCC 43300; H2O): 32 µg/mL (≈ 42.4 µM) | MBC (S. aureus ATCC 43300; water additive DMSO): 32 µg/mL (≈ 42.4 µM) | MIC (S. aureus ATCC 43300; water additive DMSO): 16 µg/mL (≈ 21.2 µM) | MBC (S. aureus ATCC 43300; water additive EtOH): 32 µg/mL (≈ 42.4 µM) | MIC (S. aureus ATCC 43300; water additive EtOH): 32 µg/mL (≈ 42.4 µM) | MBC (S. pyogenes ATCC 19615; H2O): 32 µg/mL (≈ 42.4 µM) | MIC (S. pyogenes ATCC 19615; H2O): 16 µg/mL (≈ 21.2 µM) | MBC (S. pyogenes ATCC 19615; water additive DMSO): 32 µg/mL (≈ 42.4 µM) | MIC (S. pyogenes ATCC 19615; water additive DMSO): 16 µg/mL (≈ 21.2 µM) | MBC (S. pyogenes ATCC 19615; water additive EtOH): 32 µg/mL (≈ 42.4 µM) | MIC (S. pyogenes ATCC 19615; water additive EtOH): 8 µg/mL (≈ 10.6 µM) | MBC (S. cohnii c.i.; H2O): 32 µg/mL (≈ 42.4 µM) | MIC (S. cohnii c.i.; H2O): 16 µg/mL (≈ 21.2 µM) | MBC (S. cohnii c.i.; water additive DMSO): 32 µg/mL (≈ 42.4 µM) | MIC (S. cohnii c.i.; water additive DMSO): 32 µg/mL (≈ 42.4 µM) | MIC (S. cohnii c.i.; water additive EtOH): 32 µg/mL (≈ 42.4 µM) | MBC (E. faecalis c.i.; water additive DMSO): 256 µg/mL (≈ 339 µM) | MIC (E. faecalis c.i.; water additive DMSO): 256 µg/mL (≈ 339 µM) | MBC (E. faecalis c.i.; water additive EtOH): 256 µg/mL (≈ 339 µM) | MBC (S. schleiferi c.i.; water additive EtOH): 256 µg/mL (≈ 339 µM) | MBC (S. intemrdius c.i.; H2O): 32 µg/mL (≈ 42.4 µM) | MIC (S. intemrdius c.i.; H2O): 16 µg/mL (≈ 21.2 µM) | MBC (S. intemrdius c.i.; water additive DMSO): 32 µg/mL (≈ 42.4 µM) | MIC (S. intemrdius c.i.; water additive DMSO): 16 µg/mL (≈ 21.2 µM) | MBC (S. intemrdius c.i.; water additive EtOH): 16 µg/mL (≈ 21.2 µM) | MIC (S. intemrdius c.i.; water additive EtOH): 16 µg/mL (≈ 21.2 µM) | MIC (S. mutans c.i.; H2O): > 512 µg/mL | MIC (S. mutans c.i.; water additive DMSO): > 512 µg/mL | MIC (S. mutans c.i.; water additive EtOH): > 512 µg/mL | MIC (E. coli ATCC 25922; H2O): > 512 µg/mL | MIC (E. coli ATCC 25922; water additive DMSO): > 512 µg/mL | MIC (E. coli ATCC 25922; water additive EtOH): > 512 µg/mL | MIC (P. vulgaris ATCC 6896; H2O): > 512 µg/mL | MIC (P. vulgaris ATCC 6896; water additive DMSO): > 512 µg/mL | MIC (P. vulgaris ATCC 6896; water additive EtOH): > 512 µg/mL | MIC ([1]; H2O): 512 µg/mL (≈ 678 µM) | MIC ([1]; water additive DMSO): > 512 µg/mL | MIC ([1]; water additive EtOH): > 512 µg/mL | MIC (P. aeruginosa ATCC 10145; H2O): 256 µg/mL (≈ 339 µM) | MIC (P. aeruginosa ATCC 10145; water additive DMSO): > 512 µg/mL | MIC (P. aeruginosa ATCC 10145; water additive EtOH): > 512 µg/mL | % AcCN (acetonitrile required for elution from the column) [2]: 49.8% and 44.8–49.8% | cytotoxicity (LDH), in words [3]: cytotoxic to keratinocytes at all concentrations | cytotoxicity (LDH), in words (fibroblasts (46BR.1N)): less pronounced in fibroblasts | effect on proliferation, in words [4]: negative impact | antiproliferative effect (decrease vs control) [4, 6]: ~50% | effect on proliferation, in words [5]: negative impact | antiproliferative effect (decrease vs control) [5, 6]: ~50%

CC(C)C[C@H](NC(=O)[C@H](CCCNC(=N)N)NC(=O)OCc1ccccc1)C(=O)N[C@H](CN)C(C)C [Compound A-197]
MIC (S. aureus ATCC 43300; H2O): > 512 µg/mL | MIC (S. aureus ATCC 43300; water additive DMSO): > 512 µg/mL | MIC (S. aureus ATCC 43300; water additive EtOH): > 512 µg/mL | MIC (S. pyogenes ATCC 19615; H2O): > 512 µg/mL | MIC (S. pyogenes ATCC 19615; water additive DMSO): > 512 µg/mL | MIC (S. pyogenes ATCC 19615; water additive EtOH): > 512 µg/mL | MIC (S. cohnii c.i.; H2O): > 512 µg/mL | MIC (S. cohnii c.i.; water additive DMSO): > 512 µg/mL | MIC (S. cohnii c.i.; water additive EtOH): > 512 µg/mL | MIC (E. faecalis c.i.; H2O): > 512 µg/mL | MIC (E. faecalis c.i.; water additive DMSO): > 512 µg/mL | MIC (E. faecalis c.i.; water additive EtOH): > 512 µg/mL | MIC (S. schleiferi c.i.; H2O): 256 µg/mL (≈ 506 µM) | MIC (S. schleiferi c.i.; water additive DMSO): 256 µg/mL (≈ 506 µM) | MIC (S. schleiferi c.i.; water additive EtOH): 256 µg/mL (≈ 506 µM) | MIC (S. agalactiae ATCC 27956; H2O): > 512 µg/mL | MIC (S. agalactiae ATCC 27956; water additive DMSO): > 512 µg/mL | MIC (S. agalactiae ATCC 27956; water additive EtOH): > 512 µg/mL | MBC (S. mutans c.i.; H2O): 512 µg/mL (≈ 1010 µM) | MIC (S. mutans c.i.; H2O): 256 µg/mL (≈ 506 µM) | MBC (S. mutans c.i.; water additive EtOH): 256 µg/mL (≈ 506 µM) | MIC (E. coli ATCC 25922; H2O): > 512 µg/mL | MIC (E. coli ATCC 25922; water additive DMSO): > 512 µg/mL | MIC (E. coli ATCC 25922; water additive EtOH): > 512 µg/mL | MIC (P. vulgaris ATCC 6896; H2O): > 512 µg/mL | MIC (P. vulgaris ATCC 6896; water additive DMSO): > 512 µg/mL | MIC (P. vulgaris ATCC 6896; water additive EtOH): > 512 µg/mL | MIC ([1]; H2O): > 512 µg/mL | MIC ([1]; water additive DMSO): > 512 µg/mL | MIC ([1]; water additive EtOH): > 512 µg/mL | MIC (P. aeruginosa ATCC 10145; H2O): > 512 µg/mL | MIC (P. aeruginosa ATCC 10145; water additive DMSO): > 512 µg/mL | MIC (P. aeruginosa ATCC 10145; water additive EtOH): > 512 µg/mL | % AcCN (acetonitrile required for elution from the column) [2]: 42.5% | cytotoxicity (LDH), in words [3]: no cytotoxicity | concentration at which cytotoxic effect starts ([3]; LDH): > 150 µg/mL | cytotoxicity (LDH), in words (fibroblasts (46BR.1N)): no cytotoxicity | concentration at which cytotoxic effect starts (fibroblasts (46BR.1N); LDH): > 150 µg/mL | effect on proliferation, in words [4]: did not exert any negative impact | effect on proliferation, in words [5]: did not exert any negative impact
